Columns and labels:
[1] = target: 5-hydroxytryptamine receptor 1E (Homo sapiens) (UniProt P28566); experiment: Selectivity interaction (GPCR panel (PDSP screen)) EUB0001079a HTR1E; settings: at 10 µM
[2] = target: T1, Ephrin type-A receptor 8 (Homo sapiens) (UniProt P29322); experiment: Selectivity interaction (Kinase panel (Invitrogen)) EUB0000639a EPHA8; settings: at 200 nM
T1 sequence (whole entry): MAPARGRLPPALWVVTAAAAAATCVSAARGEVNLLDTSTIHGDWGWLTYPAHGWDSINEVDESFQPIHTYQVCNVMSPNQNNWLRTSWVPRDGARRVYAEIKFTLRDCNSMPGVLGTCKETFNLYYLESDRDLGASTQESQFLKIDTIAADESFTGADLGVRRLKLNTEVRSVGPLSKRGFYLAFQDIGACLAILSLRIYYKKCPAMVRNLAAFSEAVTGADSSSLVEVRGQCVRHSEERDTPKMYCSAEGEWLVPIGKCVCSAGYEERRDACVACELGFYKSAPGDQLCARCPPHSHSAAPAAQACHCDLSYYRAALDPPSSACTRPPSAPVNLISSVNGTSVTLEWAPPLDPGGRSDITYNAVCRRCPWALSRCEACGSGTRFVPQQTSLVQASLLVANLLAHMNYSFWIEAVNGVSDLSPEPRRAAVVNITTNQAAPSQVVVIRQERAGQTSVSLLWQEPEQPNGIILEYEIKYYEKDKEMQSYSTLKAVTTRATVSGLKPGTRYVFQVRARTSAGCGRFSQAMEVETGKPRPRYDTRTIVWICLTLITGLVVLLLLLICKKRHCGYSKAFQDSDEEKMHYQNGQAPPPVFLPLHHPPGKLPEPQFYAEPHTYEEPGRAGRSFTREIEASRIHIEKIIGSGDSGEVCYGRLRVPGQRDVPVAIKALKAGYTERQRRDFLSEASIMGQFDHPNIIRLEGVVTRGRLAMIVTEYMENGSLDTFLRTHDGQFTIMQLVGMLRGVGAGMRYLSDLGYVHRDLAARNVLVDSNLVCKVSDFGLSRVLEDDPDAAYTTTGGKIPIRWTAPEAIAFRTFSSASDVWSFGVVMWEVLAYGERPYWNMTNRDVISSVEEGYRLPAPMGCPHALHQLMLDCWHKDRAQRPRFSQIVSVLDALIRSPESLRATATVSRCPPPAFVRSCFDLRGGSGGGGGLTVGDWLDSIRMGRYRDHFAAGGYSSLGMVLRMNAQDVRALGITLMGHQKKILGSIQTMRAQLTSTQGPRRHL

[3] = target: Transient receptor potential cation channel subfamily M member 6 (Homo sapiens) (UniProt Q9BX84); experiment: Selectivity interaction (KinomeScan (DiscoverX)) EUB0000595a TRPM6; settings: at 10 µM
[4] = target: Activin receptor type-2A (Homo sapiens) (UniProt P27037); experiment: Selectivity interaction (KinomeScan (DiscoverX)) EUB0000045b ACVR2A
[5] = target: T2, Serine/threonine-protein kinase RIO3 (Homo sapiens) (UniProt O14730); experiment: Selectivity interaction (KinomeScan (DiscoverX)) EUB0000655a RIOK3; settings: at 10 µM
T2 sequence (whole entry): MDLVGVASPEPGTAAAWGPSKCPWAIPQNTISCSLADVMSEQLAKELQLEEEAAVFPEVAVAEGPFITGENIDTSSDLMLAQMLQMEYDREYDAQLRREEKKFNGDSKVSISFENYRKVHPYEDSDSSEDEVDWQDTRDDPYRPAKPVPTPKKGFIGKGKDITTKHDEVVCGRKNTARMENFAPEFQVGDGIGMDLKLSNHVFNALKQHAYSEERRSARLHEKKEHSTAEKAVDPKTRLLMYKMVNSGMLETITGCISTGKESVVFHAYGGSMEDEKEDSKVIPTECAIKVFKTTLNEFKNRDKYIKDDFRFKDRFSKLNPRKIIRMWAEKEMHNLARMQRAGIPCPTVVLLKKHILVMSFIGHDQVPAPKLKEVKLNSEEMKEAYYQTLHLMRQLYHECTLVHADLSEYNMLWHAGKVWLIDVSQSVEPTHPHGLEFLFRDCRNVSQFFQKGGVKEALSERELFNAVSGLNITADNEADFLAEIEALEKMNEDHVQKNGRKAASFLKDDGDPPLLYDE

[6] = target: T3, Ephrin type-A receptor 1 (Homo sapiens) (UniProt P21709); experiment: Selectivity interaction (KinomeScan (DiscoverX)) EUB0000607a EPHA1; settings: at 10 µM
T3 sequence (whole entry): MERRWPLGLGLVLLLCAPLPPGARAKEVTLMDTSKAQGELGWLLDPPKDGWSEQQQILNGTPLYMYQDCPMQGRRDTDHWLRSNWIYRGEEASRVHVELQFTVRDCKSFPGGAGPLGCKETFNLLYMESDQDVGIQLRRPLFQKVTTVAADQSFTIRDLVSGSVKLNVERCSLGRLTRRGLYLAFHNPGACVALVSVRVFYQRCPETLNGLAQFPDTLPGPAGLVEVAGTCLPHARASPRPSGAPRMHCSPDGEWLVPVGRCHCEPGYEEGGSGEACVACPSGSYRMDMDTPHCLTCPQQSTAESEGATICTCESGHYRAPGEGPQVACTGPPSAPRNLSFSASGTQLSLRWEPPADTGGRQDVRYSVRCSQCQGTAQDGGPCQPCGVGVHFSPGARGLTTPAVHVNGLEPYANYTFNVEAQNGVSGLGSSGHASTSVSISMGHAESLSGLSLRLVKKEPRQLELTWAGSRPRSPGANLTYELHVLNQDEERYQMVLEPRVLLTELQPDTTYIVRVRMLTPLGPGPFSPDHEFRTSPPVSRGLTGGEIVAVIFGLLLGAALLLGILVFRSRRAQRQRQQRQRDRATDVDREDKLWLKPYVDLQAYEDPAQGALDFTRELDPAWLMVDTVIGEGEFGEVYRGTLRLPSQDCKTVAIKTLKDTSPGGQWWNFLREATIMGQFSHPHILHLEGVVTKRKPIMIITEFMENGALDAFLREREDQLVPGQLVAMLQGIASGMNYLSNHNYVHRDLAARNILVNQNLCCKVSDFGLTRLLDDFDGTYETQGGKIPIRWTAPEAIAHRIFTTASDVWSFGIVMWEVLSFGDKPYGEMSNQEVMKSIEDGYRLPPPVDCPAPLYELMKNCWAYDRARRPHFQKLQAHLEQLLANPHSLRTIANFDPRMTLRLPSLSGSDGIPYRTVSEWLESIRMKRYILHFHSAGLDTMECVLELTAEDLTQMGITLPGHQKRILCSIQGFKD

[7] = target: Casein kinase I isoform gamma-2 (Homo sapiens) (UniProt P78368); experiment: Selectivity interaction (KinomeScan (DiscoverX)) EUB0000607a CSNK1G2; settings: at 10 µM
[8] = target: Cyclin-dependent kinase 5 (Homo sapiens, UniProt Q00535); experiment: Selectivity interaction (LanthaScreen Eu Kinase Binding Assay) EUB0001632a CDK5; settings: at 10 µM
Cyclin-dependent kinase 5, sequence (Q00535 whole entry, looked up): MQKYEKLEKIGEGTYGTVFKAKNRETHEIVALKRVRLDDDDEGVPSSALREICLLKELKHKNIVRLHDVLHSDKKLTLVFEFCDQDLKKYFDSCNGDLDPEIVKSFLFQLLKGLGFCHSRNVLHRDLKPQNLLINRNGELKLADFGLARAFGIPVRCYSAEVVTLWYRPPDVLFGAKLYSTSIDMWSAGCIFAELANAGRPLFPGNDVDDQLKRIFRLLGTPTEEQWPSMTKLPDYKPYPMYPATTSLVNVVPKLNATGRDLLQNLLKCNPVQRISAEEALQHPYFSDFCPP

Activin receptor type-2A (Homo sapiens), sequence (P27037 whole entry): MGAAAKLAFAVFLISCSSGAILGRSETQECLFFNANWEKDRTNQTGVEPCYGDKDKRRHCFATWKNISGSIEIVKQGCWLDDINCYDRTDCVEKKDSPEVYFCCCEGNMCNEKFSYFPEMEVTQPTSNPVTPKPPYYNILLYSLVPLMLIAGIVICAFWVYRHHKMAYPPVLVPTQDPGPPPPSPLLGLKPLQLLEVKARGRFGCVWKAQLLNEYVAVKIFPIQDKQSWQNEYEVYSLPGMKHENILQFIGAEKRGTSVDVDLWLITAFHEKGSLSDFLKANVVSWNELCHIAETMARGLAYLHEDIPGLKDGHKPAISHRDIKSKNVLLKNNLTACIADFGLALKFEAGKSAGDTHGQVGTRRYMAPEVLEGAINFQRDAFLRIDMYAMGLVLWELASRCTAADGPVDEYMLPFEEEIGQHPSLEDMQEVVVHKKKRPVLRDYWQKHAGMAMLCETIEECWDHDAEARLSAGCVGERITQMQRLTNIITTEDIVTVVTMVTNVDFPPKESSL
Transient receptor potential cation channel subfamily M member 6 (Homo sapiens), sequence (Q9BX84 whole entry): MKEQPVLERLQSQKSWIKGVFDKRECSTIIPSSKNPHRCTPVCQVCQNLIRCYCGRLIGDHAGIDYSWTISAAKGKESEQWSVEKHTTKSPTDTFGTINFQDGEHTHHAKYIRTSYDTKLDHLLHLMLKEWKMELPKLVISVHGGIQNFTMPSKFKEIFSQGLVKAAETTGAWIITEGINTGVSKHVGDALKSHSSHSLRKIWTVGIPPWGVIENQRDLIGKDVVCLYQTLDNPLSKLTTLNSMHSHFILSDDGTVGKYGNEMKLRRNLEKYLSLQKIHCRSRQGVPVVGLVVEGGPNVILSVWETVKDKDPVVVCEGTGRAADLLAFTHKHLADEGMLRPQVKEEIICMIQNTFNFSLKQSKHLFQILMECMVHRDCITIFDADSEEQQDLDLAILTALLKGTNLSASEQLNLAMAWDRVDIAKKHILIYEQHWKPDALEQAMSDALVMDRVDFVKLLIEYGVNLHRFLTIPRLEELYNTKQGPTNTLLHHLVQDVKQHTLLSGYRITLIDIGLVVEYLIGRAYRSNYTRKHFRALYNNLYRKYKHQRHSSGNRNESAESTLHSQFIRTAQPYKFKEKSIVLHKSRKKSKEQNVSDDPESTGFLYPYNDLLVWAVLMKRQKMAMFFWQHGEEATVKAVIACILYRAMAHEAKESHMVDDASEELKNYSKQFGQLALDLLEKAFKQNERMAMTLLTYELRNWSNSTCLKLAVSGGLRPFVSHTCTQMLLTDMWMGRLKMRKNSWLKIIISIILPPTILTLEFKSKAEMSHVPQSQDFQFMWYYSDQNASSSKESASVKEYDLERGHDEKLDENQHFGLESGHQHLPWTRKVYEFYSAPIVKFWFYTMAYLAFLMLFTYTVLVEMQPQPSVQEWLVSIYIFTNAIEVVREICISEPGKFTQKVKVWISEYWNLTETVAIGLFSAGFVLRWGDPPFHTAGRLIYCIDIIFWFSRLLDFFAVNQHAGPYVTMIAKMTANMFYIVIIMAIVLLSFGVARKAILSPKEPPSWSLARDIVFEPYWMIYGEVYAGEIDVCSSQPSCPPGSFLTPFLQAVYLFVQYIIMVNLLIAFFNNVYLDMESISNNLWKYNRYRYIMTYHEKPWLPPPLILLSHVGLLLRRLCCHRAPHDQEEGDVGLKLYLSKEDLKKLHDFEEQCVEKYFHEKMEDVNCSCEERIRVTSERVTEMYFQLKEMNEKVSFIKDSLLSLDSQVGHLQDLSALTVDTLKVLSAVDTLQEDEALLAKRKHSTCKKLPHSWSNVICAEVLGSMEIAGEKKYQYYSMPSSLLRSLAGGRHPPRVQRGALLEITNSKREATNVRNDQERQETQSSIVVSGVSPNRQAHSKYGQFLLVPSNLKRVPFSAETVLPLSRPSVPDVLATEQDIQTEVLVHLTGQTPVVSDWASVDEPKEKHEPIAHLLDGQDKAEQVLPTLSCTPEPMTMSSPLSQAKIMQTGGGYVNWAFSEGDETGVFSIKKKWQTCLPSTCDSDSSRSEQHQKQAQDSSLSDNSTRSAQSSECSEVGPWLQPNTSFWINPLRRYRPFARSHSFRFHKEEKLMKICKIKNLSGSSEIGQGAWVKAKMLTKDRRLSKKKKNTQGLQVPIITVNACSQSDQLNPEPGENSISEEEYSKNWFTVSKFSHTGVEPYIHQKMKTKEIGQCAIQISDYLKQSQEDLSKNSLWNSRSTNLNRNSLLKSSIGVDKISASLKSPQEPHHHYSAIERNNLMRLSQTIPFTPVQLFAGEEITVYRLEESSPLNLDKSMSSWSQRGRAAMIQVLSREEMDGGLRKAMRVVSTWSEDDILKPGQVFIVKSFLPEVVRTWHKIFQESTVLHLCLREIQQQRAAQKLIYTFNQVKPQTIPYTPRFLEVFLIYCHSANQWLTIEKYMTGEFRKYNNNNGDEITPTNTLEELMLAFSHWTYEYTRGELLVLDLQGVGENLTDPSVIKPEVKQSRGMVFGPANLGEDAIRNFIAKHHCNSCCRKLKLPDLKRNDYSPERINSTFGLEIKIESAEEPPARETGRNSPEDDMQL
5-hydroxytryptamine receptor 1E (Homo sapiens), sequence (P28566 whole entry): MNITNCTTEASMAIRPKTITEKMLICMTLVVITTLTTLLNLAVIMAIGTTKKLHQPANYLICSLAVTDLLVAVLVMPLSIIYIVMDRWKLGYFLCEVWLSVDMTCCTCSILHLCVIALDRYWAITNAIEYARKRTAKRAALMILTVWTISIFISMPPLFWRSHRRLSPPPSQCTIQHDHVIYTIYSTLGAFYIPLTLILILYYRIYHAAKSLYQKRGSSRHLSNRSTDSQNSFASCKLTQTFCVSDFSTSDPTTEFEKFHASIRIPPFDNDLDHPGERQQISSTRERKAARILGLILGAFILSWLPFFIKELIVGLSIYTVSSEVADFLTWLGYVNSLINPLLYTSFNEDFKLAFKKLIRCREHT
Casein kinase I isoform gamma-2 (Homo sapiens), sequence (P78368 whole entry, looked up, canonical isoform): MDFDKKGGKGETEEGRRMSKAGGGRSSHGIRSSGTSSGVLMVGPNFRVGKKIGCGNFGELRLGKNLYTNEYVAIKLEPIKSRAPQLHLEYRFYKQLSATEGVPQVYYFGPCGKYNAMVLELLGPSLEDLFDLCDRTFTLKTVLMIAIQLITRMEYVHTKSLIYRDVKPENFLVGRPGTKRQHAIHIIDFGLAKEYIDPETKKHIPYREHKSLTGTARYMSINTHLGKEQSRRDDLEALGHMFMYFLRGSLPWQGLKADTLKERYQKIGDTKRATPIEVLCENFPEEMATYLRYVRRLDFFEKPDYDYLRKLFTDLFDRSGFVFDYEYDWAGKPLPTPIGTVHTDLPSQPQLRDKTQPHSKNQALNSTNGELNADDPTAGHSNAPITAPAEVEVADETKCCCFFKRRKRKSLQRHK

SMILES: Nc1cnc(N2CCc3cc(S(=O)(=O)Nc4c(F)cc(Cl)cc4F)cc(N4CCCC4=O)c32)nc1 [TP-020n]
- % of inhibition [1]: -4.55%

SMILES: CC[C@@H]1[C@H](F)C(=O)N[C@@H]1COc1nccc2cc(C(N)=O)c(OC)cc12 [ZIMLOVISERTIB]
- % of inhibition [2]: -0.726%

SMILES: COCC(=O)NC/C=C/c1ccc2ncnc(Nc3ccc(Oc4ccc(C)nc4)c(C)c3)c2c1 [CP-724714]
- % of control [3]: 100%

SMILES: C=CC(=O)Nc1cc(-n2c(=O)ccc3cnc4ccc(-c5ccc(NS(C)(=O)=O)cc5)cc4c32)ccc1C
- % of control ([4]; at 1 µM): 94%
- % of control ([4]; at 10 µM): 88%

SMILES: CN(C)CCOc1ccc(-c2nc(-c3ccncc3)c(-c3ccc4c(c3)CC/C4=N\O)[nH]2)cc1
- % of control [5]: 82%

SMILES: CNC(=O)Nc1ccc(-c2nc(N3CC4CCC(C3)O4)c3cnn(C4CCC5(CC4)OCCO5)c3n2)cc1
- % of control [6]: 81%
- % of control [7]: 95%

SMILES: Cn1cc(-n2cnc3c(NCc4nc5cc(Cl)c(Cl)cc5[nH]4)nc(N4CCOCC4)nc32)cn1
- % of inhibition [8]: -96.6%
